{"source": "ChEMBL document CHEMBL6109137", "about": "“Design, Synthesis, Evaluation, and SAR of 5-Phenylisoindoline Derivatives, a Potent Class of Small-Molecule Inhibitors Targeting the Programmed Cell Death-1/Programmed Cell Death-Ligand 1 (PD-1/PD-L1) Interaction” (J Med Chem, 2025)", "key": {"[1]": {"test": "Toxicity in C57BL/6J mouse implanted with mouse MC38 cells assessed as change in PCT count at 40 to 160 mg/kg, IG qd for 7 days", "format": "organism-based", "conditions": "in vivo, po, 168 h, dose 40-160 mg/kg, time 7 day"}, "[2]": {"target": "Programmed cell death protein 1/Programmed cell death 1 ligand 1 (Homo sapiens) (UniProt Q15116+Q9NZQ7)", "test": "Inhibition of PD-1/PD-L1 (unknown origin) interaction in human PBMC cells assessed as increase in IFN-gamma level at 100 nM pretreated with anti-CD3/CD28 and PD-L1 followed by compound addition measured after 72 hrs by ELISA", "format": "cell-based"}, "[3]": {"test": "Toxicity in C57BL/6J mouse implanted with mouse MC38 cells assessed as change in liver index at 5 to 20 mg/kg, ip qd for 13 days", "format": "organism-based", "conditions": "in vivo, 312 h, dose 5-20 mg/kg, time 13 day"}, "[4]": {"test": "Half life in Sprague-Dawley rat at 20 mg/kg, po measured for 24 hrs by LC-MS/MS analysis", "format": "ADME, organism-based", "conditions": "in vivo"}, "[5]": {"test": "AUC (0 to 24 hrs) in Sprague-Dawley rat at 10 mg/kg, ip measured for 24 hrs by LC-MS/MS analysis", "format": "ADME, organism-based", "conditions": "in vivo"}, "[6]": {"test": "Cmax in Sprague-Dawley rat at 10 mg/kg, ip measured for 24 hrs by LC-MS/MS analysis", "format": "ADME, organism-based", "conditions": "in vivo"}, "Mus musculus": {"tested_on": "Mus musculus", "test": "Restoration of immune function in C57BL/6J mouse implanted with mouse MC38 cells assessed as increase in serum IL-2 level administered intraperitoneally once daily for 13 days by ELISA", "format": "functional, organism-based", "conditions": "dose 5-20 mg/kg, route ip, time 13.0 day"}, "[7]": {"test": "Toxicity in C57BL/6J mouse implanted with mouse MC38 cells assessed as change in PDW count at 40 to 160 mg/kg, IG qd for 7 days", "format": "organism-based", "conditions": "in vivo, po, 168 h, dose 40-160 mg/kg, time 7 day"}, "[8]": {"test": "Cytotoxicity against human BEAS-2B cells measured after 48 hrs by MTT assay", "format": "toxicity, cell-based"}, "[9]": {"test": "Toxicity in C57BL/6J mouse implanted with mouse MC38 cells assessed as change in body weight at 5 to 20 mg/kg, ip qd for 13 days", "format": "organism-based", "conditions": "in vivo, 312 h, dose 5-20 mg/kg, time 13 day"}, "[10]": {"test": "AUC (0 to 24 hrs) in Sprague-Dawley rat at 20 mg/kg, po measured for 24 hrs by LC-MS/MS analysis", "format": "ADME, organism-based", "conditions": "in vivo"}, "[11]": {"test": "Cmax in Sprague-Dawley rat at 20 mg/kg, po measured for 24 hrs by LC-MS/MS analysis", "format": "ADME, organism-based", "conditions": "in vivo"}, "[12]": {"test": "AUC (0 to infinity) in Sprague-Dawley rat at 1 mg/kg, iv measured for 24 hrs by LC-MS/MS analysis", "format": "ADME, organism-based", "conditions": "in vivo"}, "[13]": {"test": "Toxicity in C57BL/6J mouse implanted with mouse MC38 cells assessed as change in serum ALT level at 5 to 20 mg/kg, ip qd for 13 days", "format": "organism-based", "conditions": "in vivo, 312 h, dose 5-20 mg/kg, time 13 day"}, "[14]": {"test": "Toxicity in C57BL/6J mouse implanted with mouse MC38 cells assessed as change in excised body weight at 40 to 160 mg/kg, IG qd for 7 days", "format": "organism-based", "conditions": "in vivo, po, 168 h, dose 40-160 mg/kg, time 7 day"}, "MC-38 [15]": {"tested_on": "MC-38", "test": "Antitumor activity against mouse MC38 cells implanted in C57BL/6J mouse assessed as tumor growth inhibition at 160 mg/kg, IG qd", "format": "functional, organism-based", "conditions": "time 7.0 day"}, "MC-38 [16]": {"tested_on": "MC-38", "test": "Antitumor activity against mouse MC38 cells implanted in C57BL/6J mouse at 160 mg/kg, IG qd for 7 days relative to control", "format": "functional", "conditions": "MC-38, po, 168 h, time 7 day, read-out: TGI"}, "[17]": {"test": "Toxicity in C57BL/6J mouse implanted with mouse MC38 cells assessed as change in kidney index at 5 to 20 mg/kg, ip qd for 13 days", "format": "organism-based", "conditions": "in vivo, 312 h, dose 5-20 mg/kg, time 13 day"}, "[18]": {"test": "Toxicity in C57BL/6J mouse implanted with mouse MC38 cells assessed as change in brain index at 5 to 20 mg/kg, ip qd for 13 days", "format": "organism-based", "conditions": "in vivo, 312 h, dose 5-20 mg/kg, time 13 day"}, "MC-38 [19]": {"tested_on": "MC-38", "test": "Antitumor activity against mouse MC38 cells implanted in C57BL/6J mouse assessed as tumor growth inhibition administered intragastrically once daily for 7 days", "format": "functional, cell-based", "conditions": "dose 40-160 mg/kg, route ig, time 7.0 day"}, "[20]": {"test": "Toxicity in C57BL/6J mouse implanted with mouse MC38 cells assessed as liver weight ratio at 40 to 160 mg/kg, IG qd for 7 days", "format": "organism-based", "conditions": "in vivo, po, 168 h, dose 40-160 mg/kg, time 7 day"}, "[21]": {"test": "Toxicity in C57BL/6J mouse implanted with mouse MC38 cells assessed as animal mortality at 40 to 160 mg/kg, IG qd for 7 days", "format": "organism-based", "conditions": "in vivo, po, 168 h, dose 40-160 mg/kg, time 7 day"}, "[22]": {"test": "Half life in Sprague-Dawley rat at 10 mg/kg, ip measured for 24 hrs by LC-MS/MS analysis", "format": "ADME, organism-based", "conditions": "in vivo"}, "[23]": {"test": "Cytotoxicity against human L02 cells measured after 48 hrs by MTT assay", "format": "toxicity, cell-based"}, "MC-38 [24]": {"tested_on": "MC-38", "test": "Antitumor activity against mouse MC38 cells implanted in C57BL/6J mouse assessed as increase in ratio of CD8+/CD4+ T cells at 20 mg/kg, ip qd for 13 days by flow cytometry", "format": "functional, organism-based", "conditions": "time 13.0 day"}, "[25]": {"test": "Stability in human plasma at 1 mM measured up to 7 hrs by HPLC analysis", "format": "ADME, cell-free", "conditions": "1000 µM"}, "MC-38 [26]": {"tested_on": "MC-38", "test": "Antitumor activity against mouse MC38 cells implanted in C57BL/6J mouse assessed as increase in granzyme B level at 5 to 20 mg/kg, ip qd for 13 days by IHC analysis", "format": "functional, organism-based", "conditions": "dose 5-20 mg/kg, time 13.0 day"}, "[27]": {"test": "Half life in Sprague-Dawley rat at 1 mg/kg, iv measured for 24 hrs by LC-MS/MS analysis", "format": "ADME, organism-based", "conditions": "in vivo"}, "[28]": {"test": "Tmax in Sprague-Dawley rat at 20 mg/kg, po measured for 24 hrs by LC-MS/MS analysis", "format": "ADME, organism-based", "conditions": "in vivo"}, "MC-38 [29]": {"tested_on": "MC-38", "test": "Inhibition of PD-L1-induced cell migration in mouse MC38 cells at 5 uM measured up to 24 hrs by scratch assay", "format": "functional, cell-based"}, "[30]": {"test": "Toxicity in C57BL/6J mouse implanted with mouse MC38 cells assessed as brain weight ratio at 40 to 160 mg/kg, IG qd for 7 days", "format": "organism-based", "conditions": "in vivo, po, 168 h, dose 40-160 mg/kg, time 7 day"}, "[31]": {"test": "Toxicity in C57BL/6J mouse implanted with mouse MC38 cells assessed as change in monocytes count at 40 to 160 mg/kg, IG qd for 7 days", "format": "organism-based", "conditions": "in vivo, po, 168 h, dose 40-160 mg/kg, time 7 day"}, "[32]": {"test": "Cytotoxicity against human PBMC cells assessed as inhibition of cell viability by CCK8 assay", "format": "toxicity, cell-based"}, "[33]": {"test": "Toxicity in C57BL/6J mouse implanted with mouse MC38 cells assessed as injury in liver at 5 to 20 mg/kg, ip qd for 13 days by H and E staining based analysis", "format": "organism-based", "conditions": "in vivo, 312 h, dose 5-20 mg/kg, time 13 day"}, "[34]": {"test": "Drug uptake in mouse MC38 cells incubated for 48 hrs by LC-MS/MS analysis", "format": "ADME, cell-based", "conditions": "mc-38, 48 h, dose 1-10 µM"}, "[35]": {"test": "Toxicity in C57BL/6J mouse implanted with mouse MC38 cells assessed as change in ureas level at 40 to 160 mg/kg, IG qd for 7 days", "format": "organism-based", "conditions": "in vivo, po, 168 h, dose 40-160 mg/kg, time 7 day"}, "MC-38 [36]": {"tested_on": "MC-38", "test": "Antitumor activity against mouse MC38 cells implanted in C57BL/6J mouse assessed as increase in infiltration of CD8+ T cells at 5 to 20 mg/kg, ip qd for 13 days by IHC analysis", "format": "functional, organism-based", "conditions": "dose 5-20 mg/kg, time 13.0 day"}, "[37]": {"test": "Cytotoxicity against HEK293T cells measured after 48 hrs by MTT assay", "format": "toxicity, cell-based, HEK-293T", "conditions": "human"}}, "note": "Calls of active or inactive are those of the source. The calls are words filed in the database; no cut-off is given here."}
{"smiles": "C[C@H](N)C(=O)N1Cc2ccc(-c3cccc(-c4ccc5c(c4)OCCO5)c3Cl)cc2C1.Cl", "values": [{"measurement": "Activity", "setting": "[1]", "result": "Non-toxic"}, {"measurement": "inhibition", "setting": "[2]", "result": "Active"}, {"measurement": "Activity", "setting": "[3]", "result": "Non-toxic"}, {"measurement": "half-life", "setting": "[4]", "result": 215, "unit": "min"}, {"measurement": "AUC(0-t) at 24 h", "setting": "[5]", "result": 1010, "unit": "ng·h/mL"}, {"measurement": "Cmax", "setting": "[6]", "result": 412, "unit": "ng/mL"}, {"measurement": "Activity", "setting": "Mus musculus", "result": "Dose-dependent-effect"}, {"measurement": "Activity", "setting": "[7]", "result": "Non-toxic"}, {"measurement": "IC50 at 48 h", "setting": "[8]", "result": "> 10", "unit": "µM"}, {"measurement": "Activity", "setting": "[9]", "result": "Non-toxic"}, {"measurement": "AUC(0-t) at 24 h", "setting": "[10]", "result": 467, "unit": "ng·h/mL"}, {"measurement": "Cmax", "setting": "[11]", "result": 151, "unit": "ng/mL"}, {"measurement": "AUC(0-inf)", "setting": "[12]", "result": 191, "unit": "ng·h/mL"}, {"measurement": "Activity", "setting": "[13]", "result": "Non-toxic"}, {"measurement": "Activity", "setting": "[14]", "result": "Non-toxic"}, {"measurement": "inhibition", "setting": "MC-38 [15]", "result": "Time-dependent-effect"}, {"measurement": "inhibition in vivo at 160 mg/kg", "setting": "MC-38 [16]", "result": 64.4, "unit": "%"}, {"measurement": "Activity", "setting": "[17]", "result": "Non-toxic"}, {"measurement": "Activity", "setting": "[18]", "result": "Non-toxic"}, {"measurement": "inhibition", "setting": "MC-38 [19]", "result": "Dose-dependent-effect"}, {"measurement": "Activity", "setting": "[20]", "result": "Non-toxic"}, {"measurement": "Activity", "setting": "[21]", "result": "Non-toxic"}, {"measurement": "half-life", "setting": "[22]", "result": 241, "unit": "min"}, {"measurement": "IC50 at 48 h", "setting": "[23]", "result": "> 10", "unit": "µM"}, {"measurement": "Activity", "setting": "MC-38 [24]", "result": "Active"}, {"measurement": "Stability", "setting": "[25]", "result": "Stable"}, {"measurement": "Activity", "setting": "MC-38 [26]", "result": "Active"}, {"measurement": "half-life", "setting": "[27]", "result": 96.6, "unit": "min"}, {"measurement": "Tmax", "setting": "[28]", "result": 2.5, "unit": "h"}, {"measurement": "inhibition", "setting": "MC-38 [29]", "result": "Active"}, {"measurement": "Activity", "setting": "[30]", "result": "Non-toxic"}, {"measurement": "Activity", "setting": "[31]", "result": "Non-toxic"}, {"measurement": "IC50", "setting": "[32]", "result": "> 5", "unit": "µM"}, {"measurement": "Activity", "setting": "[33]", "result": "Non-toxic"}, {"measurement": "Drug uptake", "setting": "[34]", "result": "Dose-dependent-effect"}, {"measurement": "Activity", "setting": "[35]", "result": "Non-toxic"}, {"measurement": "Activity", "setting": "MC-38 [36]", "result": "Active"}, {"measurement": "IC50 at 48 h", "setting": "[37]", "result": "> 10", "unit": "µM"}]}
